Structures can show the parent of a compound that is named as a salt. Where two headings read alike, the source gives them in different places.

Assay [1] concerns DU4475 cells. The assay is described as follows: Cell-based assay: anti-proliferative activity, Cell Counting Kit-8, 72 hours (DU4475). Background: Tetrazolium assays rely on reduction of a dye to a coloured formazan, in cell work by metabolically active cells.
The test system of assay [2] is T47D cells. The assay is described as follows: Cell-based assay: anti-proliferative activity, Cell Counting Kit-8, 72 hours (T47D). A digest of the protocol:
(§1)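 IC50 values come from CCK-8 growth measurements taken 72 hours post-treatment of plated cells with test compounds. Expression of MELK across the panel was assessed through immunoblot of unfractionated lysates.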

Assay [3] deals with HT-1197 cells. The assay is described as follows: Cell-based assay: anti-proliferative activity, Cell Counting Kit-8, 72 hours (HT-1197, negative control without MELK expression). The note with it: HT1197 cells (negative control, no MELK expression), 72 hours. The essentials:
as §1

The target in assay [4] is MELK (Homo sapiens, UniProt Q14680). The assay is described as follows: Kinase assay: MELK activity, phosphorylation of FITC-labeled histone H3 peptide measured by IMAP fluorescence polarization. Format: biochemical. Particulars: read-out: IC50 (μM) (kinase assay). The essentials:
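Substrate is FITC-labeled histone H3 peptide. Compounds come from a 12.5 mM DMSO stock, diluted so assay DMSO is 1%. The stop step adds threefold-volume progressive binding solution, followed by 0.5 h at room temperature and an FP read.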
(In fluorescence polarisation assays a small probe gives low polarisation when free and higher when bound to something large.)

In assay [5] the test system is A549 cells. The assay is described as follows: Cell-based assay: anti-proliferative activity, Cell Counting Kit-8, 72 hours (A549). The note with it: 72 hours. The essentials: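 Cell Counting Kit-8 read-out of A549 growth after 72 hours of inhibitor exposure, cells plated in 96-well format. Values reported as IC50.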
The subject of assay [6] is 22Rv1 cells. The assay is described as follows: Cell-based assay: anti-proliferative activity, Cell Counting Kit-8, 72 hours (22Rv1).
Setting [7] is: MELK kinase assay, IMAP fluorescence polarization, 50 micro-M ATP.

Sequence of MELK (Q14680 whole entry, looked up): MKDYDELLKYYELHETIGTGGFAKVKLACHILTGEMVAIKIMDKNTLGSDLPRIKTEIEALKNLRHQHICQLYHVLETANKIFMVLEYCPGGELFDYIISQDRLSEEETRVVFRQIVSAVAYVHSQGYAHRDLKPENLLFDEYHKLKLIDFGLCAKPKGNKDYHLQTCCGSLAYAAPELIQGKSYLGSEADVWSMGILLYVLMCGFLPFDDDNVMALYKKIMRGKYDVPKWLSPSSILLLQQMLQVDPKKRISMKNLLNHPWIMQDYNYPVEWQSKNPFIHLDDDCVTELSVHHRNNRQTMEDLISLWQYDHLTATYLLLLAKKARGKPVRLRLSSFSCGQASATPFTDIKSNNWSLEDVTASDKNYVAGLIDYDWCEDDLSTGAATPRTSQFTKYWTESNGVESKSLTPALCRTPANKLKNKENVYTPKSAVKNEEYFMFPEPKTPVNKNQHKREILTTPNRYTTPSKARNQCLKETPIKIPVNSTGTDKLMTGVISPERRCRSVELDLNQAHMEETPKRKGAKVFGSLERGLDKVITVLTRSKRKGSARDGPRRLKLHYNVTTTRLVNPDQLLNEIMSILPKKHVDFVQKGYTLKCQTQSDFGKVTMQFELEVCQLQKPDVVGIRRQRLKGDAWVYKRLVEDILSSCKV

With `CC(=O)c1cnc2ccc(-c3cc(F)c(O)c(Cl)c3)cc2c1N[C@H]1CC[C@H](CN2CCN(C)CC2)CC1` [Example 781, 1-(6-(3-chloro-5-fluoro-4-hydroxyphenyl)-4-(1R,4R)-4-((4-methylpiperazin-1-yl)methyl)cyclohexylamino)quinolin-3-yl)ethanone hydrochloride], the IC50 came to 0.19 µM in assay [1] (Homo sapiens, DU-4475, 72 h); 0.1 µM in assay [2] (Homo sapiens, T47D, 72 h); 3.3 µM in assay [3] (Homo sapiens, HT1197, 72 h); 0.013 µM in assay [4]; 0.2 µM in assay [5] (Homo sapiens, A549, 72 h); 0.34 µM in assay [6] (Homo sapiens, 22Rv1, 72 h).
As for `COc1cc(-c2ccc3ncc(C(C)=O)c(N[C@H]4CC[C@H](CN5CCN(C)CC5)CC4)c3c2)cc(Cl)c1O` [Example 787, 1-(6-(3-chloro-4-hydroxy-5-methoxyphenyl)-4-(1R,4R)-4-((4-methylpiperazin-1-yl)methyl)cyclohexylamino)quinolin-3-yl)ethanone hydrochloride], the half-maximal inhibitory concentration (IC50) in assay [1] (Homo sapiens, DU-4475, 72 h) worked out at 2.7 µM; in assay [2] (Homo sapiens, T47D, 72 h) it was 0.48 µM; in assay [3] (Homo sapiens, HT1197, 72 h) it was 5.2 µM; in assay [4], 0.0058 µM; in assay [5] (Homo sapiens, A549, 72 h), 0.44 µM; in assay [6] (Homo sapiens, 22Rv1, 72 h), 0.72 µM.
Turning to `CC(=O)c1cnc2ccc(-c3cc(F)c(O)c(Cl)c3)cc2c1N[C@H]1CC[C@H](CN2CCC[C@H]2CO)CC1` [Example 844, 1-(6-(3-chloro-5-fluoro-4-hydroxyphenyl)-4-((1S,4r)-4-(((S)-2-(hydroxymethyl)pyrrolidin-1-yl)methyl)cyclohexylamino)quinolin-3-yl)ethanone], the concentration for half-maximal inhibition (IC50) in assay [1] (Homo sapiens, DU-4475, 72 h) was 0.092 µM; in assay [2] (Homo sapiens, T47D, 72 h) it was 0.067 µM; in assay [3] (Homo sapiens, HT1197, 72 h), 3.3 µM; in assay [4] (setting [7]) it was 0.0046 µM; in assay [5] (Homo sapiens, A549, 72 h) it was 0.18 µM; in assay [6] (Homo sapiens, 22Rv1, 72 h) it was 0.18 µM.
For the molecule `CC(=O)c1cnc2ccc(-c3cc(Cl)c(O)c(Cl)c3)cc2c1N[C@H]1CC[C@H](CN2CCCC2)CC1` [Example 768, 1-(6-(3,5-dichloro-4-hydroxyphenyl)-4-(trans-4-(pyrrolidin-1-ylmethyl)cyclohexylamino)quinolin-3-yl)ethanone hydrochloride], the IC50 turned out to be 0.07 µM in assay [1] (hydrochloride); 0.11 µM in assay [2] (72 hours, hydrochloride); 28 µM in assay [3] (hydrochloride); 0.0015 µM in assay [4] (hydrochloride); 0.13 µM in assay [5] (hydrochloride); 0.11 µM in assay [6] (hydrochloride).
For the molecule `CC(=O)c1cnc2ccc(-c3cc(F)c(O)c(Cl)c3)cc2c1N[C@H]1CC[C@H](N(C)C)CC1` [Example 763, 1-{6-(3-Chloro-5-fluoro-4-hydroxyphenyl)-4-[trans-4-(dimethylamino)cyclohexylamino]quinolin-3-yl}ethanone], the concentration for half-maximal inhibition (IC50) in assay [1] (Homo sapiens, DU-4475, 72 h) was 0.093 µM; in assay [2] (Homo sapiens, T47D, 72 h), 0.05 µM; in assay [3] (Homo sapiens, HT1197, 72 h), 1.8 µM; in assay [4], 0.0087 µM; in assay [5] (Homo sapiens, A549, 72 h), 0.27 µM; in assay [6] (Homo sapiens, 22Rv1, 72 h), 0.14 µM.
On to `CN(C)CCNc1ccc(Nc2c(C(=O)C3CC3)cnc3ccc(-c4cc(Cl)c(O)c(Cl)c4)cc23)cn1` [Example 748, cyclopropyl(6-(3,5-dichloro-4-hydroxyphenyl)-4-(6-(2-(dimethylamino)ethylamino)pyridin-3-ylamino)quinolin-3-yl)methanone hydrochloride], for which the IC50 in assay [1] (hydrochloride) came to 0.032 µM; in assay [2] (72 hours, hydrochloride), 0.088 µM; in assay [3] (hydrochloride) it was 1.6 µM; in assay [4] (hydrochloride) it was 0.0026 µM; in assay [5] (hydrochloride), 0.069 µM; in assay [6] (Homo sapiens, 22Rv1, 72 h), 0.1 µM.
Turning to `CC(=O)c1cnc2ccc(-c3cc(F)c(O)c(Cl)c3)cc2c1Nc1ccc(N2CCC(N(C)C)C2)nc1` (stereo not drawn) [Example 853, 1-(6-(3-chloro-5-fluoro-4-hydroxyphenyl)-4-((6-(3-(dimethylamino)pyrrolidin-1-yl)pyridin-3-yl)amino)quinolin-3-yl)ethanone], the IC50 in assay [1] (Homo sapiens, DU-4475, 72 h) was found to be 0.38 µM; in assay [2] (Homo sapiens, T47D, 72 h), 0.2 µM; in assay [3] (Homo sapiens, HT1197, 72 h), 10 µM; in assay [4] (setting [7]) it was 0.018 µM; in assay [5] (Homo sapiens, A549, 72 h), 0.45 µM; in assay [6] (Homo sapiens, 22Rv1, 72 h), 0.65 µM.
As for `CN1CCN(CCc2cccc(Nc3c(C(=O)C4CC4)cnc4ccc(-c5cc(F)c(O)c(Cl)c5)cc34)c2)CC1` [Example 828, (6-(3-chloro-5-fluoro-4-hydroxyphenyl)-4-(3-(2-(4-methylpiperazin-1-yl)ethyl)phenylamino)quinolin-3-yl)(cyclopropyl)methanone], the half-maximal inhibitory concentration (IC50) in assay [1] (Homo sapiens, DU-4475, 72 h) was determined as 0.16 µM; in assay [2] (Homo sapiens, T47D, 72 h) it was 5.7 µM; in assay [3] (Homo sapiens, HT1197, 72 h), 9.5 µM; in assay [4] (setting [7]), 0.017 µM; in assay [5] (Homo sapiens, A549, 72 h), 0.23 µM; in assay [6] (Homo sapiens, 22Rv1, 72 h), 0.72 µM.
Turning to `CC(=O)c1cnc2ccc(-c3cc(Cl)c(O)c(Cl)c3)cc2c1Nc1ccc(N2CCC(N(C)C)C2)nc1` (stereo not drawn) [Example 855, 1-(6-(3,5-dichloro-4-hydroxyphenyl)-4-((6-(3-(dimethylamino)pyrrolidin-1-yl)pyridin-3-yl)amino)quinolin-3-yl)ethanone hydrochloride], the IC50 was 0.23 µM in assay [1] (hydrochloride); 0.26 µM in assay [2] (72 hours, hydrochloride); 73 µM in assay [3] (hydrochloride); 0.0021 µM in assay [4] (MELK kinase assay, IMAP fluorescence polarization, 50 micro-M ATP, hydrochloride); 0.38 µM in assay [5] (hydrochloride); 0.64 µM in assay [6] (hydrochloride).
Turning to `CN1CCN(CCc2cccc(Nc3c(C(=O)C4CC4)cnc4ccc(-c5cc(Cl)c(O)c(Cl)c5)cc34)c2)CC1` [Example 829, cyclopropyl(6-(3,5-dichloro-4-hydroxyphenyl)-4-(3-(2-(4-methylpiperazin-1-yl)ethyl)phenylamino)quinolin-3-yl)methanone], the IC50 was determined as 0.057 µM in assay [1] (Homo sapiens, DU-4475, 72 h); 0.7 µM in assay [2] (Homo sapiens, T47D, 72 h); 5.7 µM in assay [3] (Homo sapiens, HT1197, 72 h); 0.0051 µM in assay [4] (setting [7]); 0.087 µM in assay [5] (Homo sapiens, A549, 72 h); 0.23 µM in assay [6] (Homo sapiens, 22Rv1, 72 h).
With `CC(=O)c1cnc2ccc(-c3cc(Cl)c(O)c(Cl)c3)cc2c1NC1CCCN(CCN(C)C)C1` (stereo not drawn) [Example 850, 1-(6-(3,5-dichloro-4-hydroxyphenyl)-4-(1-(2-(dimethylamino)ethyl)piperidin-3-ylamino)quinolin-3-yl)ethanone], the concentration for half-maximal inhibition (IC50) in assay [1] (Homo sapiens, DU-4475, 72 h) stood at 0.32 µM; in assay [2] (Homo sapiens, T47D, 72 h), 1.1 µM; in assay [3] (Homo sapiens, HT1197, 72 h) it was 4 µM; in assay [4] (setting [7]), 0.0019 µM; in assay [5] (Homo sapiens, A549, 72 h), 0.89 µM; in assay [6] (Homo sapiens, 22Rv1, 72 h) it was 1.2 µM.
On to `CCC(=O)c1cnc2ccc(-c3cc(Cl)c(O)c(Cl)c3)cc2c1Nc1ccc(CN(C)C)cc1` [Example 771, 1-(6-(3,5-dichloro-4-hydroxyphenyl)-4-((4-((dimethylamino)methyl)phenyl)amino)quinolin-3-yl)propan-1-one], for which the IC50 in assay [1] (Homo sapiens, DU-4475, 72 h) was determined as 0.045 µM; in assay [2] (Homo sapiens, T47D, 72 h), 0.072 µM; in assay [3] (Homo sapiens, HT1197, 72 h), 0.72 µM; in assay [4] it was 0.0054 µM; in assay [5] (Homo sapiens, A549, 72 h), 0.095 µM; in assay [6] (Homo sapiens, 22Rv1, 72 h), 0.16 µM.
For the molecule `CC(=O)c1cnc2ccc(-c3cc(F)c(O)c(Cl)c3)cc2c1Nc1cccc(CCN2CCN(C)CC2)c1` [Example 830, 1-(6-(3-chloro-5-fluoro-4-hydroxyphenyl)-4-(3-(2-(4-methylpiperazin-1-yl)ethyl)phenylamino)quinolin-3-yl)ethanone], the half-maximal inhibitory concentration (IC50) in assay [1] (Homo sapiens, DU-4475, 72 h) came to 0.26 µM; in assay [2] (Homo sapiens, T47D, 72 h) it was 1.5 µM; in assay [3] (Homo sapiens, HT1197, 72 h), 15 µM; in assay [4] (setting [7]), 0.019 µM; in assay [5] (Homo sapiens, A549, 72 h), 0.73 µM; in assay [6] (Homo sapiens, 22Rv1, 72 h) it was 1.3 µM.

Usually IC50 stands for the point on the concentration scale where inhibition reaches its midpoint.

The values are drawn from patent US9120749B2, “Quinoline derivatives and MELK inhibitors containing the same” (ONCOTHERAPY SCIENCE, INC., priority 2010, dated 2015).
